Legend:
[1] = test system: Mechanical hyperalgesia in rats with streptozotocin-induced diabetes (diabetic neuropathy); experiment: Mechanical hyperalgesia in rats with streptozotocin-induced diabetes; assay type: in vivo, rat; settings: male CD rats, dose 10^-5 mol/kg, 2 h after treatment, vehicle 114 ± 2.7, normal animals 240±8.7 g
Method: 2. Mechanical Hyperalgesia in Rats with Streptozotocin-induced Diabetes
Male CD rats weighing 240-300 g on arrival were used.
The diabetic syndrome was induced by means of a single intraperitoneal (i.p.) injection of 80 mg/kg of streptozotocin dissolved in sterile physiological solution [Courteix C, Eschalier A, Lavarenne J. Streptozotocin-induced diabetic rats: behavioural evidence for a model of chronic pain. Pain, 1993; 53: 81-88; Bannon A W, Decker M W, Kim D J, Campbell J E, Arneric S P. ABT-594, a novel cholinergic channel modulator, is efficacious in nerve ligation and diabetic neuropathy models of neuropathic pain. Brain Res. 1998; 801:158-63].
At least three weeks after the injection of streptozotocin, rats with a level of glycemia≧300 mg/dl and with a response threshold to a mechanical nociceptive stimulus ≦120 g were selected. The glycemia levels were measured by means of a reflectometer, using reactive strips impregnated with glucose oxidase. The pain threshold was measured using an analgesimeter. By applying a gradual increase in pressure onto the dorsal area of the left hind paw of the rat, the instrument makes it possible to record the nocifensive response, expressed in grams, corresponding to the moment at which the animal retracts the paw.
Two hours after the treatment, the pain threshold measured in control animals was compared with that measured in animals treated with the test product (dose: 10^−5 mol/kg).
The control animals were treated with the same vehicle (water) used for administering the test products.

[2] = test system: CFA-induced mechanical hyperalgesia in rats; experiment: CFA-induced mechanical hyperalgesia in rats; assay type: in vivo, rat; settings: male CD rats, dose 10^-5 mol/kg, test 23 hours after injecting the CFA, 1 h after treatment; vehicle 120 ± 6.1, normal animals 155±2.1 g
From the text: 1. CFA-induced Mechanical Hyperalgesia in Rats
Male CD rats weighing 150-200 g on arrival were used.
By means of an analgesimeter, rats with a response threshold to a mechanical nociceptive stimulus in the range from 150 to 180 g were selected. By applying a gradual increase in pressure onto the dorsal region of the left hind paw of the rat, the instrument makes it possible to record the nocifensive response, expressed in grams, corresponding to the moment at which the animal retracts the paw [Randall L O and Selitto J J. A method for the measurement of analgesic activity on inflamed tissue. Arch. Int. Pharmacodyn. Ther. 1957; 111: 409-419].
The hyperalgesia was induced by unilateral injection of 150 μl of “Complete Freund's Adjuvant” (CFA) into the surface of the left hind paw of the animal [Andrew D, Greenspan J D. Mechanical and heat sensitization of cutaneous nociceptors after peripheral inflammation in the rat. J Neurophysiol. 1999; 82(5): 2649-2656; Hargreaves K, Dubner R, Brown R, Flores C, Joris J. A new and sensitive method for measuring thermal nociception in cutaneous hyperalgesia. Pain 1988; 32: 77-88].
The test compounds were tested (dose: 10^−5 mol/kg) by performing the test 23 hours after injecting the CFA.
One hour after the treatment, the pain threshold measured in control animals was compared with that measured in animals treated with the test product. The control animals were treated with the same vehicle (water) used for administering the test products.

SMILES	Pain threshold (g) 2 h after the treatment [1] [g]	Pain threshold (g) 1 h after the treatment [2] [g]
CC(C)n1nc(C(=O)NCC2CCN(CC(=O)Nc3ccccc3)CC2)c2ccccc21.Cl [AF3R172, N3-((1-(2-oxo-2-(phenylamino)ethyl)-4-piperidyl)methyl)-1-(1-methylethyl)-1H-indazole-3-carboxamide hydrochloride]	186 ± 13.0	175 ± 10.2
Cc1ccc(S(=O)(=O)O)cc1.O=C(CN1CCC(CNC(=O)c2n[nH]c3ccccc23)CC1)Nc1ccccc1 [AF3R276, N3-((1-(2-oxo-2-(phenylamino)ethyl)-4-piperidyl)methyl)-1H-indazole-3-carboxamide tosylate]	210 ± 10.9	185 ± 15.9
Cl.O=C(CN1CCC(CNC(=O)c2nn(Cc3ccccc3)c3ccccc23)CC1)Nc1ccccc1 [AF3R277, N3-((1-(2-oxo-2-(phenylamino)ethyl)-4-piperidyl)methyl)-1-benzyl-1H-indazole-3-carboxamide hydrochloride]	188 ± 11.0	170 ± 10.7
CC(C)n1nc(C(=O)NCC2CCN(CC(=O)Nc3ccc(O)cc3)CC2)c2ccccc21.Cl [AF3R278, N3-((1-(2-((4-hydroxyphenyl)amino)-2-oxoethyl)-4-piperidyl)methyl)-1-(1-methylethyl)-1H-indazole-3-arboxamide hydrochloride]	240 ± 16.5	164 ± 10.2
CC(C)n1nc(C(=O)NCC2CCN(CC(=O)Nc3ccc(N)cc3)CC2)c2ccccc21.Cl.Cl [AF3R292, N3-((1-(2-oxo-2-((4-aminophenyl)amino)ethyl)-4-piperidyl)methyl)-1-(1-methylethyl)-1H-indazole-3-carboxamide dihydrochloride]	202 ± 8.7	154 ± 11.5
Cc1ccc2[nH]nc(C(=O)NCC3CCN(CC(=O)Nc4ccccc4)CC3)c2c1.Cl [AF3R295, 5-methyl-N-3-((1-(2-oxo-2-(phenylamino)ethyl)-4-piperidyl)methyl)-1H-indazole-3-carboxamide hydrochloride]	212 ± 14.6	202 ± 17.0
Cc1ccc2c(c1)c(C(=O)NCC1CCN(CC(=O)Nc3ccccc3)CC1)nn2C(C)C.Cl [AF3R299, 5-methyl-N-3-((1-(2-oxo-2-(phenylamino)ethyl)-4-piperidyl)methy 1)-1-(1-methylethyl)-1H-indazole-3-carboxamide hydrochloride]	200 ± 10.7	167 ± 8.5
CC(C)n1nc(C(=O)NCC2CCN(CC(=O)Nc3ccc(N(C)C)cc3)CC2)c2ccccc21.Cl.Cl [AF3R301, N3-((1-(2-oxo-2-((4-(dimethylamino)phenyl)amino)ethyl)-4-piperidyl)methyl)-1-(1-methylethyl)-1H-indazole-3-carboxamide dihydrochloride]	201 ± 13.8	151 ± 10.7
Cc1cccc(C)c1NC(=O)CN1CCC(CNC(=O)c2nn(C(C)C)c3ccccc23)CC1.O=C(O)C(=O)O [AF3R305, N3-((1-(2-oxo-2-((2,6-dimethylphenyl)amino)ethyl)-4-piperidyl)methyl)-1-(1-methylethyl)-1H-indazole-3-carboxamide oxalate]	189 ± 9.2	174 ± 8.4
CC(C)n1nc(C(=O)NCC2CCN(CC(=O)Nc3ccc(OCc4ccccc4)cc3)CC2)c2ccccc21 [AF3R331, N3-((1-(2-oxo-2-((4-((phenylmethyl)oxy)phenyl)amino)ethyl)-4-piperidyl)methyl)-1-(1-methylethyl)-1H-indazole-3-carboxamide]	192 ± 11.5	156 ± 8.7
CC(C)n1nc(C(=O)NCC2CCN(CC(=O)Nc3ccc([N+](=O)[O-])cc3)CC2)c2ccccc21 [AF3R335, N3-((1-(2-oxo-2-((4-nitrophenyl)amino)ethyl)-4-piperidyl)methyl)-1-(1-methylethyl)-1H-indazole-3-carboxamide]	180 ± 13.0	168 ± 6.8

From patent US8519139B2, “Indazolamides with analgesic activity” (Aziende Chimeche Riunite Angelini Francesco A.C.R.A.F. …, priority 2003, dated 2013)
